Values of other authors in US20130177646A1, “Solid Nicotine-Comprising Dosage Form with Reduced Organoleptic Disturbance” (priority 2012, published 2013).

Details: smoking a cigarette

CN1CCCC1c1cccnc1 (stereo not shown) [nicotine]
time for nicotine to reach the brain after inhalation: around ten
